Results reported in patent US7807685B2, “Therapeutic compounds” (CBT Development Limited, priority 2006, dated 2010).
Like-named read-outs stand apart in the source and are kept apart here.

Experiments:
[1] = biological target: T1, rat adenosine A2a receptors (Rattus norvegicus, UniProt P30543); test: Binding at rat A2a receptors, rat striatal membranes, [3H]-CGS21680
T1 construct: from tissue; host or cells: rat striatum (membranes)
Description: Chemical structures of compounds of the invention are given in the Examples below. Binding experiments were carried out using rat A2a receptors. Ki values were determined for each compound at pH 5.5 and pH 7.4.

[2] = system: rat adjuvant model of arthritis; test: Analgesic relief in rat adjuvant model of arthritis; format: in vivo
adenosine A2A receptor = adenosine A2A receptor (Homo sapiens, UniProt P29274); test: EC50 at the adenosine A2A receptor; format: biochemical
Text: For the avoidance of doubt, the EC50 value of a compound is defined herein as the concentration of the compound that provokes a receptor response halfway between the baseline receptor response and the maximum receptor response (as determined, for example, using a dose-response curve).
The EC50 value should be determined under standard conditions (balanced salt solutions buffered to pH 7.4). For EC50 determinations using isolated membranes, cells and tissues this would be in buffered salt solution at pH 7.4 (e.g. cell culture medium), for example as in Daly et al., Pharmacol. (1993) 46, 91-100), or preferably as in Tilburg et al (J. Med. Chem. (2002) 45, 91-100). The EC50 could also be determined in vivo by measuring adenosine receptor mediated responses in a normal healthy animal, or even in a tissue perfused under normal conditions (i.e. oxygenated blood, or oxygenated isotonic media, also buffered at pH 7.4) in a normal healthy animal.

[3] = Plasma concentrations after single oral dosing in human volunteers; format: in vivo
[4] = Tachycardia by 12 lead ECGs in human volunteers; format: in vivo
Description: Tachycardia was determined using 12 lead ECGs.

[5] = Minimum effective analgesic plasma concentration in the rat; format: in vivo
[6] = system: carageenan-induced inflammation; conditions: rats, 20 mg/kg po; cited from earlier work
[7] = 20 mg/kg po; cited from earlier work
[8] = system: U937 human macrophage cells; conditions: cited from earlier work
[9] = pH 5.5, read-out: (Ki) nM (pH 5.5)
[10] = pH 7.4, read-out: (Ki) nM (pH 7.4)

T1 sequence (P30543 whole entry): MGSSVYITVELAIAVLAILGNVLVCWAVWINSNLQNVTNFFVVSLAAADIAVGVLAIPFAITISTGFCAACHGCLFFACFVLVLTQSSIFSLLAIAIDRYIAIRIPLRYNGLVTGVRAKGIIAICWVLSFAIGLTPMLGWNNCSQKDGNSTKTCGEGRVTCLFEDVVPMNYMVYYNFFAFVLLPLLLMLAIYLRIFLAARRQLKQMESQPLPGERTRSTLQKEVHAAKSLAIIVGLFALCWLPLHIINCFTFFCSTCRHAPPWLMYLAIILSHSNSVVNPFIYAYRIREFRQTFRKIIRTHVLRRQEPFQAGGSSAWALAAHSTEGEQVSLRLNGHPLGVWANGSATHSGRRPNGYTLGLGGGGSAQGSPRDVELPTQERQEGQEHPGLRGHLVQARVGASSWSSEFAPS
Chain of adenosine A2A receptor (P29274 whole entry): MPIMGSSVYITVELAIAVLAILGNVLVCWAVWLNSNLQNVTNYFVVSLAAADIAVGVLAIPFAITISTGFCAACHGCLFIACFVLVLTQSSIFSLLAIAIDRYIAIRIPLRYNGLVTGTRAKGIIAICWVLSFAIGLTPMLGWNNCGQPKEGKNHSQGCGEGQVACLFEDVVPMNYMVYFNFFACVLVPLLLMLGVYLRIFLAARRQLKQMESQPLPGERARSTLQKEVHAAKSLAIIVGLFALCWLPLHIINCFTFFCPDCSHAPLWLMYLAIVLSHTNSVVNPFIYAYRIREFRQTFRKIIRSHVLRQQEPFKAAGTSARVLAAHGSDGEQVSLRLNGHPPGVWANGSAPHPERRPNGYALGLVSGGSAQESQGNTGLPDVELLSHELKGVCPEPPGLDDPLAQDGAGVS

Ki [1, 9] [nM]	Ki [1, 10] [nM]	EC50 (adenosine A2A receptor) [nM]	time with plasma concentrations greater than […] ([3]; human, 0.8 mg oral)	Compound	minimum plasma concentration giving maximal analgesic relief [2] [µM]	minimum effective dose in the human ([3]; suggested from rat minimum effective plasma concentration)	Tachycardia side effect ([4]; single oral dose 0.2 mg)	Tachycardia side effect ([4]; single oral dose 0.8 mg)	Tachycardia side effect ([4]; single oral dose 3.5 mg)	Tachycardia side effect ([4]; single oral dose 10.5 mg)	Tachycardia side effect ([4]; single oral dose 21 mg)	Tachycardia side effect ([4]; single oral dose 28 mg)	minimum effective analgesic plasma concentration [5] [µM]	inhibition of carageenan-induced inflammation [6] [%]	reduction in heart rate [7] [%]	reduction in mean blood pressure [7] [%]	phorbol ester induced TNF alpha release [8]
47	17			CCCCNc1nc(N)c2ncn([C@@H]3O[C@H](CO)[C@@H](O)[C@H]3O)c2n1 [NHCH2CH2CH2CH3]													
1900	1900			CCCNc1nc(N)c2ncn([C@@H]3O[C@H](CO)[C@@H](O)[C@H]3O)c2n1 [NHCH2CH2CH3]													
		~1000	approximately 1.5 h	COc1nc(N)c2ncn([C@@H]3O[C@H](CO)[C@@H](O)[C@H]3O)c2n1 [spongosine, 2-methoxyadenosine]	0.06	approximately 0.8 mg	No	No	No	No	No	Yes	0.025	25	25	41	reduce phorbol ester induced TNF alpha release
